{
  "source": "patent US5541208A",
  "about": "“Indole diterpene alkaloid compounds” (priority 1994, dated 1996)",
  "key": {"[1]": {"target": "T1, bovine aortic sarcolemma membrane vesicles ([^125 I]ChTX receptor) (Bos taurus, UniProt Q28204)", "T1 construct": "bovine aortic s sarcolemma membrane vesicles; from tissue; host or cells: bovine aorta, sarcolemma membrane vesicles", "T1 sequence (Q28204 whole entry)": "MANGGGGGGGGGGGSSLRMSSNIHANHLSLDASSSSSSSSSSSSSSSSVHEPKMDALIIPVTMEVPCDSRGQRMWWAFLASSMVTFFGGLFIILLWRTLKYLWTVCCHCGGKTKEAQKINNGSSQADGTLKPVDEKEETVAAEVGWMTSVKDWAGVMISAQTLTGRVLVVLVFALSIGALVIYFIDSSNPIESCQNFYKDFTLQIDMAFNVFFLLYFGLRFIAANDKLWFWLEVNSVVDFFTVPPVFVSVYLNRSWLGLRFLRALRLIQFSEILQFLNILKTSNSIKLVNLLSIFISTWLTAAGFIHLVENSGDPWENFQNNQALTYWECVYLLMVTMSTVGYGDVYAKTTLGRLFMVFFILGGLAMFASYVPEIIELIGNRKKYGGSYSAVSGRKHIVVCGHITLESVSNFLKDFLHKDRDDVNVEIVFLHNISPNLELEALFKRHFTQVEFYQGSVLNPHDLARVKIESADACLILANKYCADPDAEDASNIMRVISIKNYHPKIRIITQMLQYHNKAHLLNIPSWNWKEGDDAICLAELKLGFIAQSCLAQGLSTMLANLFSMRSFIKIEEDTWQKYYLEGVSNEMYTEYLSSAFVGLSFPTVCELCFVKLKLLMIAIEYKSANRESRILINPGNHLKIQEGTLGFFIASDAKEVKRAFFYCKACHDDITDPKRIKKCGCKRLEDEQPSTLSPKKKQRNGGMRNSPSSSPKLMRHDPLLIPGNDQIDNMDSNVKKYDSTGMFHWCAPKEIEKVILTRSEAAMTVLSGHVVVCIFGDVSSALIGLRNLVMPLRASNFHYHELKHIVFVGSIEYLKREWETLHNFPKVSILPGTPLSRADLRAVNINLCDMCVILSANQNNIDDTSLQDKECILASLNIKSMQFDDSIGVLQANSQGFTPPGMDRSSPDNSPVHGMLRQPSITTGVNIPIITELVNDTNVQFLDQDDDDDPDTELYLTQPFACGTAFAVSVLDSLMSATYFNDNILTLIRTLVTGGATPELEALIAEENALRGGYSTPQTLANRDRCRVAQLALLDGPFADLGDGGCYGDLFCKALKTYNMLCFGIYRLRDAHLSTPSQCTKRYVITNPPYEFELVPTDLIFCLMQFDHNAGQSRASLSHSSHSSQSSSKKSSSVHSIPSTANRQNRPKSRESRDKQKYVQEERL", "T1 sequence (Q28067 whole entry partner)": "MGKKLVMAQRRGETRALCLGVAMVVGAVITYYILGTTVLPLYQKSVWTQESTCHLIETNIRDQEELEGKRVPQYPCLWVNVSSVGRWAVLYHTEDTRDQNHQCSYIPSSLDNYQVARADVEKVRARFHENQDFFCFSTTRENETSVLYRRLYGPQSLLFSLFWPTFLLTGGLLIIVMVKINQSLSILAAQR", "assay": "[^125 I]ChTX binding assay with aortic sarcolemma membrane vesicles", "conditions": "for effect on [^125 I]ChTX binding: 1 nM to 100 μM", "description": "The interaction of [^125 I]ChTX with bovine aortic s sarcolemma membrane vesicles was determined under conditions as described (Vazquez et al., 1989, J. Biol. Chem. 264, 20902-20909). Briefly, sarcolemma membrane vesicles were incubated in 12×75 polystyrene tubes with ca. 25 pM [^125 I]ChTX (2200 Ci/mmol), in the absence or presence of test compound, in a media consisting of 20 mM NaCl, 20 mM Tris-HCl pH 7.4, 0.1% bovine serum albumin, 0.1% digitonin. Nonspecific binding was determined in the presence of 10 nM ChTX. Incubations were carried out at room temperature until ligand binding equilibrium is achieved at ca. 90 min. At the end of the incubation period, samples were diluted with 4 mL ice-cold 100 mM NaCl, 20 mM Hepes-Tris pH 7.4 and filtered through GF/C glass fiber filters that have been presoaked in 0.5% polyethylenimine. Filters were rinsed twice with 4 mL ice-cold quench solution. Radioactivity associated with filters was determined in a gamma counter. Specific binding data in the presence of each compound (difference between total binding and nonspecific binding) was assessed relative to an untreated control."}, "[2]": {"target": "T2, maxi-K channels from bovine aortic smooth muscle (Bos taurus, UniProt Q28204)", "T2 construct": "membrane patches excised from cultured bovine aortic smooth muscle cells; endogenous in cells; host or cells: cultured bovine aortic smooth muscle cells", "T2 sequence (Q28204 whole entry)": "as the sequence (Q28204 whole entry) above", "assay": "Patch clamp recording of maxi-K channel currents in excised inside-out membrane patches", "assay_type": "biochemical", "conditions": "for IC50: table of Example 4, read-out: 50% CHANNEL BLOCK; for block of maxi-K channels relative to Compound C: compared with Compound C; for inhibition at 0.01 µM: pH 7.2", "from_the_text": "Patch clamp recordings of currents flowing through large-conductance calcium-activated potassium (maxi-K) channels were made from membrane patches excised from cultured bovine aortic smooth muscle cells using conventional techniques (Hamill et al., 1981, Pflugers Archiv. 391, 85-100) at room temperature. Glass capillary tubing (Gamer #7052) was pulled in two stages to yield micropipettes with tip diameters of approximately 1-2 microns. Pipettes were typically filled with solutions containing (mM): 150 KCl, 10 Hepes (4-(2-hydroxyethyl)-1-piperazine ethanesulfonic acid), 1 Mg, 0.01 Ca, and adjusted to pH 7.20 with 3.7 mM KOH. After forming a high resistance (>10^9 ohms) seal between the sarcolemmal membrane and the pipette, the pipette was withdrawn from the cell, forming an excised inside-out membrane patch. The patch was excised into a bath solution containing (mM): 150 KCl, 10 Hepes, 5 EGTA (ethylene glycol bis(13-aminoethyl ether)-N,N,N',N'-tetraacetic acid), sufficient Ca to yield a free Ca concentration of 1-5 μM, and the pH was adjusted to 7.2 with 10.5 KOH. For example, 4.568 mM Ca was added to give a free concentration of 2 μM at 22 ° C. An AXOPATCH 1C amplifier (Axon Instruments, Foster City, Calif.) with a CV-4 headstage was used to control the voltage and to measure the currents flowing across the membrane patch. The input to the headstage was connected to the pipette solution with a Ag/AgCl wire, and the amplifier ground was connected to the bath solution with a Ag/AgCl wire covered with a tube filled with agar dissolved in 0.2M KCl. Maxi-K channels were identified by their large single channel conductance (~250 pS) and sensitivity of channel open probability to membrane potential and intracellular calcium concentration.\nData were stored on a RACAL STORE 4DS FM tape recorder (Racal Recorders, Vienna, Va.) or on digital video tape using a video casette recorder after digitizing the signal with VR-10 (Instrutech Corp., Belmont N.Y.) PCM video encoder. The signal was also recorded on chart paper with a GOULD 2400S chart recorder (Gould Inc., Cleveland Ohio). For quantitative analysis, the data was played into a DEC11-73 (Digital Equipment Corp., Maynard, Mass.) after digitization with a DT2782-8D1A analogue to digital converter (Data Translation Inc., Marlboro, Mass.), or played into a Mac IIx or Quadra 700 computer (Apple Computers) after digitization with an ITC-16 interface (Instrutech Corp., Belmont, N.Y.)."}},
  "note": "Where two headings read alike, the source gives them in different places.",
  "data": [
    {"smiles": "CC(C)=CCc1cccc2[nH]c3c(c12)CC1CCC2(O)C45OC4C4OC(C=C(C)C)OC(C)(C)C4OC5=CCC2(C)C31C", "note": "(stereo not shown) [Compound C]", "values": [
      {"measurement": "inhibition at 10 µM", "setting": "[1]; read-out: inhibition of [^125 I]ChTX binding", "result": 29, "unit": "%"},
      {"measurement": "block of maxi-K channels / channel activity", "setting": "[2]; 10 nM", "result": "rapid and complete block"},
      {"measurement": "reversal of block on washout", "setting": "[2]; 10 nM, brief (~10 min) washout", "result": "not reversed"},
      {"measurement": "IC50", "setting": "[2]", "result": "< 10", "unit": "nM"}
    ]},
    {"smiles": "COC(=O)C12C(O)CC(C(C)(C)O)OC1CCC1(C)C2CCC2Cc3c([nH]c4ccccc34)C21C", "note": "(stereo not shown) [Compound E, methyl hydroxypaspalinate]", "values": [
      {"measurement": "effect on [^125 I]ChTX binding", "setting": "[1]", "result": "did not affect [^125 I]ChTX binding"},
      {"measurement": "effect on channel open probability", "setting": "[2]; 1 μM", "result": "no significant effect on channel open probability"},
      {"measurement": "block of channel activity", "setting": "[2]; 10 μM", "result": "incomplete block of channel activity"},
      {"measurement": "time over which block of channel activity slowly increased", "setting": "[2]; 10 μM", "result": "5 to 10", "unit": "min"},
      {"measurement": "block of maxi-K channels relative to Compound C", "setting": "[2]", "result": "weaker blockers of maxi-K channels than Compound C"},
      {"measurement": "IC50", "setting": "[2]", "result": "> 10000", "unit": "nM"}
    ]},
    {"smiles": "CC(C)(O)C1CC(O)C2(C(=O)O)C(CCC3(C)C2CCC2Cc4c([nH]c5ccccc45)C23C)O1", "note": "(stereo not shown) [Compound D, hydroxypaspalinic acid]", "values": [
      {"measurement": "effect on [^125 I]ChTX binding", "setting": "[1]", "result": "did not have any effect on binding"},
      {"measurement": "block of channel activity", "setting": "[2]; 1 μM", "result": "complete block was not observed"},
      {"measurement": "block of maxi-K channels relative to Compound C", "setting": "[2]", "result": "weaker blockers of maxi-K channels than Compound C"},
      {"measurement": "inhibition at 0.01 µM", "setting": "[2]; 10 nM, read-out: reduction in channel open probability", "result": "< 50", "unit": "%"},
      {"measurement": "IC50", "setting": "[2]", "result": "~1000", "unit": "nM"}
    ]},
    {"smiles": "CC1(C)ON=C2C=C3C(CCC4(C)C3(O)CCC3Cc5c([nH]c6ccccc56)C34C)OC21", "note": "(stereo not shown) [Compound F, Paxizoline]", "values": [
      {"measurement": "effect on amount of toxin bound to its receptor", "setting": "[1]; 50 nM to 2 μM", "result": "small increase in the amount of toxin bound to its receptor"},
      {"measurement": "effect on toxin binding", "setting": "[1]; concentrations above 5 μM", "result": "concentration-dependent inhibition of binding"},
      {"measurement": "inhibition at 0.01 µM", "setting": "[2]; 10 nM, read-out: decrease in channel activity", "result": "~50", "unit": "%"},
      {"measurement": "IC50", "setting": "[2]", "result": "~10", "unit": "nM"}
    ]}
  ]
}
